# Measurements taken from PubChem BioAssay AID328 (DTP/NCI, 2004).
# “And” between values parts separate entries of the source, which are not always exact repeats. Equal entries are not always repeated. Inconclusive results and toxic doses are left out.
# Tested on: BDF1 mice, P388 leukemia ip, median survival T/C
# Test: NCI In Vivo Anticancer Drug Screen. Data for tumor model P388 Leukemia (intraperitoneal) in B6D2F1 (BDF1) mice
# Conditions: endpoint: median survival time, higher = longer survival
# Procedure: The antitumor activity of compounds was measured in mice bearing transplantable tumors. Survival or tumor size were measured and the results are expressed as the measurement made in the treated group (T) divided by the measurement made in the vehicle treated control group (C). The tumor model used in this assay is P388 Leukemia (intraperitoneal) in B6D2F1 (BDF1) mice
# [1] = dose: 50.0 mg/kg/injection, schedule: Q01DX009 (ip), vehicle: saline with Tween-80
# [2] = dose: 100.0 mg/kg/injection, schedule: Q01DX009 (ip), vehicle: saline with Tween-80
# [3] = dose: 200.0 mg/kg/injection, schedule: Q01DX009 (ip), vehicle: saline with Tween-80
# [4] = dose: 50.0 mg/kg/injection, schedule: Q04DX003 (ip), vehicle: saline with Tween-80
# [5] = dose: 100.0 mg/kg/injection, schedule: Q04DX003 (ip), vehicle: saline with Tween-80
# [6] = dose: 200.0 mg/kg/injection, schedule: Q04DX003 (ip), vehicle: saline with Tween-80
# [7] = dose: 400.0 mg/kg/injection, schedule: Q04DX003 (ip), vehicle: saline with Tween-80
# [8] = dose: 25.0 mg/kg/injection, schedule: Q01DX009 (ip), vehicle: saline with Tween-80
# [9] = dose: 100.0 mg/kg/injection, schedule: Q01DX009 (ip), vehicle: saline
# [10] = dose: 200.0 mg/kg/injection, schedule: Q01DX009 (ip), vehicle: saline
smiles,measurement,setting,value
O=C(Cn1ccnc1[N+](=O)[O-])NCc1ccccc1,T/C,[1],99 % of control
same,T/C,[2],94 % of control
same,T/C,[3],100 % of control
CC(=O)N=C1C=C(NC(C)=O)C(=O)c2ncccc21,T/C,[4],109 % of control
same,T/C,[5],122 % of control
same,T/C,[6],86 % of control
CCC(c1ccc2cc(OC)ccc2c1)C(C)(C)C(=O)F (stereo not given),T/C,"dose: 12.5 mg/kg/injection, schedule: Q01DX009 (ip), vehicle: Klucel (hydroxypropylcellulose) (HPC)",116 % of control
same,T/C,"dose: 33.0 mg/kg/injection, schedule: Q01DX009 (ip), vehicle: Klucel (hydroxypropylcellulose) (HPC)",104 % of control
same,T/C,"dose: 75.0 mg/kg/injection, schedule: Q01DX009 (ip), vehicle: Klucel (hydroxypropylcellulose) (HPC)",113 % of control
CCCNC(=O)Oc1ccc(C(=O)OCC)cc1,T/C,[5],100 % of control
same,T/C,[6],109 % of control
same,T/C,[7],113 % of control
[NH-]C(CCC(N)=O)C(=O)O.[NH-]C(CCCN=C(N)N)C(=O)O.[Zn+2] (stereo not given),T/C,"dose: 50.0 mg/kg/injection, schedule: Q01DX005 (ip), vehicle: saline",104 % of control
same,T/C,"dose: 100.0 mg/kg/injection, schedule: Q01DX005 (ip), vehicle: saline",120 % of control
Brc1ccc(Oc2ccccc2)cc1,T/C,[5],122 % of control
same,T/C,"dose: 266.0 mg/kg/injection, schedule: Q04DX003 (ip), vehicle: saline with Tween-80",100 % of control
same,T/C,[7],103 % of control
same,T/C,"dose: 600.0 mg/kg/injection, schedule: Q04DX003 (ip), vehicle: saline with Tween-80",96 % of control
Clc1nc2nc[nH]c2nc1Cl,T/C,"dose: 12.5 mg/kg/injection, schedule: Q04DX003 (ip), vehicle: saline with Tween-80",100 % of control
same,T/C,[8],170 % of control
same,T/C,"dose: 25.0 mg/kg/injection, schedule: Q04DX003 (ip), vehicle: saline with Tween-80",100 % of control
same,T/C,[1],95 % of control
same,T/C,[4],90 % of control
same,T/C,[5],95 % of control
CCOC(=O)c1nnc(C)[nH]c1=O,T/C,[1],103 % of control
same,T/C,[2],103 % of control
same,T/C,[3],98 % of control
O=[N+]([O-])c1ccc(N/N=C/CC(O)CO)c([N+](=O)[O-])c1 (stereo not given),T/C,[9],100 % of control
same,T/C,[10],120 % of control
COC(=O)c1ccc(SCCCN2CCOCC2)cc1,T/C,"dose: 100.0 mg/kg/injection, schedule: Q04DX003 (ip), vehicle: saline",90 % of control
same,T/C,"dose: 200.0 mg/kg/injection, schedule: Q04DX003 (ip), vehicle: saline",113 % of control
OCCCN1CNC(=S)NC1,T/C,[9],108 % of control
same,T/C,[10],108 % of control
Cc1ccc2nc(C)n(C)c(=O)c2c1,T/C,[1],98 % of control
same,T/C,[2],91 % of control
same,T/C,[3],92 % of control
CC1CN1c1cc(O)c(N2CC2C)cc1O (stereo not given),T/C,"dose: 1.32 mg/kg/injection, schedule: Q01DX009 (ip), vehicle: saline with Tween-80",154 % of control
same,T/C,"dose: 2.0 mg/kg/injection, schedule: Q01DX009 (ip), vehicle: saline with Tween-80",208 % of control
same,T/C,"dose: 2.2 mg/kg/injection, schedule: Q01DX009 (ip), vehicle: saline with Tween-80",200 % of control
same,T/C,"dose: 3.0 mg/kg/injection, schedule: Q01DX009 (ip), vehicle: saline with Tween-80",187 % of control
same,T/C,"dose: 3.3 mg/kg/injection, schedule: Q01DX009 (ip), vehicle: saline with Tween-80",265 % of control
same,T/C,"dose: 5.0 mg/kg/injection, schedule: Q01DX009 (ip), vehicle: saline with Tween-80",310 % of control and 204 % of control
same,T/C,"dose: 5.0 mg/kg/injection, schedule: Q04DX003 (ip), vehicle: saline with Tween-80",154 % of control
same,T/C,"dose: 7.5 mg/kg/injection, schedule: Q04DX003 (ip), vehicle: saline with Tween-80",231 % of control
same,T/C,"dose: 10.0 mg/kg/injection, schedule: Q01DX009 (ip), vehicle: saline with Tween-80",90 % of control
CCCCCCCCOc1cc(OCCCCCCCC)c2c(ccc3ccccc32)c1,T/C,[5],97 % of control
same,T/C,[6],88 % of control
same,T/C,[7],94 % of control
C=C1C(=O)OC2CC(C)C3CCC(=O)C3(C)C(O)C12 (stereo not given),T/C,"dose: 4.0 mg/kg/injection, schedule: Q01DX009 (ip), vehicle: Klucel (hydroxypropylcellulose) (HPC)",90 % of control
same,T/C,"dose: 8.0 mg/kg/injection, schedule: Q01DX009 (ip), vehicle: Klucel (hydroxypropylcellulose) (HPC)",95 % of control
same,T/C,"dose: 16.0 mg/kg/injection, schedule: Q01DX009 (ip), vehicle: Klucel (hydroxypropylcellulose) (HPC)",104 % of control
same,T/C,"dose: 32.0 mg/kg/injection, schedule: Q01DX009 (ip), vehicle: Klucel (hydroxypropylcellulose) (HPC)",111 % of control
CC(=O)C(C)[P+](c1ccccc1)(c1ccccc1)c1ccccc1 (stereo not given),T/C,"dose: 2.0 mg/kg/injection, schedule: Q01DX009 (ip), vehicle: water",95 % of control
same,T/C,"dose: 4.0 mg/kg/injection, schedule: Q01DX009 (ip), vehicle: water",100 % of control
same,T/C,"dose: 8.0 mg/kg/injection, schedule: Q01DX009 (ip), vehicle: water",93 % of control
same,T/C,"dose: 12.5 mg/kg/injection, schedule: Q01DX009 (ip), vehicle: water",96 % of control
same,T/C,"dose: 16.0 mg/kg/injection, schedule: Q01DX009 (ip), vehicle: water",103 % of control
same,T/C,"dose: 25.0 mg/kg/injection, schedule: Q01DX009 (ip), vehicle: water",91 % of control
S=C1NCCS1,T/C,"dose: 22.5 mg/kg/injection, schedule: Q01DX009 (ip), vehicle: saline with Tween-80",97 % of control
same,T/C,"dose: 45.0 mg/kg/injection, schedule: Q01DX009 (ip), vehicle: saline with Tween-80",97 % of control
same,T/C,"dose: 90.0 mg/kg/injection, schedule: Q01DX009 (ip), vehicle: saline with Tween-80",92 % of control
CC1(C)C=CN2C(=O)C3=CCCN3C(=O)C2CC12Nc1ccccc1C2=O (stereo not given),T/C,"dose: 6.25 mg/kg/injection, schedule: Q01DX009 (ip), vehicle: saline",94 % of control
same,T/C,"dose: 12.5 mg/kg/injection, schedule: Q01DX009 (ip), vehicle: saline",104 % of control
same,T/C,"dose: 25.0 mg/kg/injection, schedule: Q01DX009 (ip), vehicle: saline",110 % of control
same,T/C,"dose: 50.0 mg/kg/injection, schedule: Q01DX009 (ip), vehicle: saline",100 % of control
CCN(CC)CCCC(C)Nc1c2ccccc2nc2c(Cl)cccc12 (stereo not given),T/C,"dose: 25.0 mg/kg/injection, schedule: Q01DX009 (ip), vehicle: saline sonified",88 % of control
same,T/C,"dose: 50.0 mg/kg/injection, schedule: Q01DX009 (ip), vehicle: saline sonified",94 % of control
C[As](C)SC(CO)C1OC2OC(C)(C)OC2C1O (stereo not given),T/C,"dose: 12.5 mg/kg/injection, schedule: Q01DX009 (ip), vehicle: saline + alcohol",97 % of control
same,T/C,"dose: 25.0 mg/kg/injection, schedule: Q01DX009 (ip), vehicle: saline + alcohol",100 % of control
same,T/C,"dose: 50.0 mg/kg/injection, schedule: Q01DX009 (ip), vehicle: saline + alcohol",106 % of control
COc1ccc(/C=C/C(=O)c2ccc(Cl)cc2)c(OC)c1,T/C,[8],95 % of control
same,T/C,[1],100 % of control
same,T/C,[2],109 % of control
same,T/C,[5],109 % of control
same,T/C,[3],100 % of control
same,T/C,[6],95 % of control
same,T/C,[7],90 % of control
CC(C)CCCC(C)C1CCC2C3CC=C4CC(O)CCC4(C)C3CCC12C (stereo not given) (tested in a mixture with another compound),T/C,"dose: 25.0 mg/kg/injection, schedule: Q04DX003 (ip), vehicle: alcohol",90 % of control
same,T/C,"dose: 50.0 mg/kg/injection, schedule: Q04DX003 (ip), vehicle: alcohol",100 % of control
same,T/C,"dose: 56.25 mg/kg/injection, schedule: Q01DX009 (ip), vehicle: Klucel (hydroxypropylcellulose) (HPC)",95 % of control
same,T/C,"dose: 100.0 mg/kg/injection, schedule: Q04DX003 (ip), vehicle: alcohol",105 % of control
same,T/C,"dose: 112.5 mg/kg/injection, schedule: Q01DX009 (ip), vehicle: Klucel (hydroxypropylcellulose) (HPC)",100 % of control
same,T/C,"dose: 150.0 mg/kg/injection, schedule: Q04DX003 (ip), vehicle: Klucel (hydroxypropylcellulose) (HPC)",100 % of control
same,T/C,"dose: 225.0 mg/kg/injection, schedule: Q01DX009 (ip), vehicle: Klucel (hydroxypropylcellulose) (HPC)",104 % of control
same,T/C,"dose: 225.0 mg/kg/injection, schedule: Q04DX003 (ip), vehicle: Klucel (hydroxypropylcellulose) (HPC)",104 % of control
